Assays:
PSME1 22 = target: T1, PSME1 22 (Homo sapiens, UniProt Q06323); assay: IA-DTB cysteine engagement, GluC + trypsin digest; format: binding; conditions: 22Rv1 cells
T1 construct: stereoselectively engaged C22 of endogenous PSME1 in 22Rv1 cells; endogenous in cells; host or cells: 22Rv1
Description: Sample preparation: Cells (adherent: 15 cm dishes, suspension: 2 million cells/mL) were treated with electrophilic probes in situ for indicated times and concentrations, washed with ice-cold PBS, and flash frozen in liquid nitrogen. Cell pellets were lysed by sonication (8 pulses, 40% power) in 500 μL ice-cold PBS supplemented with cOmplete protease inhibitors (1 tablet/10 mL of PBS). Whole cell lysates protein content was measured using a standard DC protein assay (Bio-Rad) and 500 μL (2 mg/mL protein content) were treated with 5 μL of 10 mM 1A-DTB (in DMSO) for 1 h at ambient temperature with occasional vortexing. Samples were methanol-chloroform precipitated with the addition of 500 μL ice-cold MeOH and 200 μL CHCl3, vortexed, and centrifuged (10 min, 10,000 g). Without disrupting the protein disk, both top and bottom layers were aspirated and the protein disk was washed with 1 mL ice-cold MeOH and centrifuged (10 min, 10,000 g). The pellets were allowed to air dry, and then re-suspended in 90 μL buffer (9 M urea, 10 mM DTT, 50 mM TEAB pH 8.5). Samples were reduced by heating at 65 C for 20 minutes and water bath sonicated as needed to resuspend the protein pellets, followed by alkylation via addition of 10 μL (500 mM) iodoacetamide and incubated at 37 C for 30 min with shaking. Samples were briefly centrifuged, and probe sonicated once more to ensure complete resuspension, and then diluted with 300 μL buffer (50 mM TEAB pH 8.5) to reach final concentration of 2 M urea. […] Digested samples were then diluted with 300 μL wash buffer (50 mM TEAB pH 8.5, 150 mM NaCl, 0.2% NP-40) containing streptavidin-agarose beads (50 μL of 50% slurry in wash buffer) and were rotated at room temperature for 2 hours. Enriched samples were pelleted by centrifugation (2000 g, 2 min) and transferred to BioSpin columns and washed (3×1 mL wash buffer, 3×1 mL PBS, 3×1 mL water). Enriched peptides were eluted by 300 μL 50% acetonitrile with 0.1% formic acid and eluate was evaporated to dryness via speedvac. IA-DTB labeled and enriched peptides were resuspended in 100 μL EPPS buffer (200 mM, pH 8.0) with 30% acetonitrile, vortexed, and water bath sonicated. Samples were TMT labeled with 3 μL of corresponding TMT tag (5 mg tag resuspended in 256 μL acetonitrile), vortexed, and incubated at room temperature for 1 hour. […]
Data processing: Cysteine engagement ratios (probe vs DMSO) were calculated for each peptide-spectra match by dividing each TMT reporter ion intensity by the average intensity for the channels corresponding to DMSO treatment. […]
Samples were analyzed by liquid chromatography tandem mass-spectrometry using an Orbitrap Fusion mass spectrometer (Thermo Scientific) coupled to an UltiMate 3000 Series Rapid Separation LC system and autosampler (Thermo Scientific Dionex). […]

22Rv1 cells = assay: Proliferation assay (CellTiter Glo); format: cell-based, human; conditions: 72 h
Description: Cells were seeded at 5000 cells per well (50 μL medium) in 96-well flat bottom white wall plates. After 24 h, 50 μL of medium containing DMSO or compound dilutions (2× final concentration from 1000× stocks) were added to the wells. At the time of compound addition, a reference plate to determine the cell population density at time 0 (TO) was assayed using CellTiter Glo reagent (50 μL added to each well). After 72 h in culture, the remaining plates were assayed using CellTiter Glo. After 30 min of shaking at room temperature, luminescence was analyzed using a CLARIOstar (BMG Labtech) plate reader. Raw values were normalized using GraphPad PRISM software version 9.0.0. Lines of best fit were generated using a four-parameter variable slope least squares regression.

T1 sequence (Q06323 whole entry): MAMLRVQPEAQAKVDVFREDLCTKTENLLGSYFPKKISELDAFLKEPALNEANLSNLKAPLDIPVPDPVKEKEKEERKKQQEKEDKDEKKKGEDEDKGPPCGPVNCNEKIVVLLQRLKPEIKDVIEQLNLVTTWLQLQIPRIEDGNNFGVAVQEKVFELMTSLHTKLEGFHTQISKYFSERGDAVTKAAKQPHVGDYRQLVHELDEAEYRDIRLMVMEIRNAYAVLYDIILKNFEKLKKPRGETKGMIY

SMILES | percent engagement relative to DMSO, PSME1 22 (PSME1 22; 5 uM) | percent engagement relative to DMSO, PSME1 22 (PSME1 22; 20 uM) | fold greater antiproliferative activity than MY-7A (22Rv1 cells) | IC50 (22Rv1 cells; read-out: antiproliferative activity IC50) | anti-proliferative effect (22Rv1 cells)
C=CC(=O)N1[C@H](c2ccc3c(c2)OCO3)c2[nH]c3ccccc3c2C[C@H]1C(=O)N1CCOCC1 [WX-02-23, 1-((1R,3S)-1-(benzo[d][1,3]dioxol-S-yl)-3-(morpholine-4-carbonyl)-1,3,4,9-tetrahydro-2H-pyrido [3,4-b]indol-2-yl)prop-2-en-1-one] | −20.9% | −29.44% | ~4 fold | 170 nM | –
C=CC(=O)N1[C@@H](c2ccc3c(c2)OCO3)c2[nH]c3ccccc3c2C[C@@H]1C(=O)N1CCOCC1 [WX-02-43, 1-((1S,3R)-1-(benzo[d][1,3]dioxol-5-yl)-3-(morpholine-4-carbonyl)-1,3,4,9-tetrahydro-2H-pyrido [3,4-b]indol-2-yl)prop-2-en-1-one] | −24.33% | −26.32% | – | – | inactive enantiomer

— patent publication US20250034216A1, “STEREOSELECTIVE COVALENT LIGANDS FOR ONCOGENIC AND IMMUNOLOGICAL PROTEINS” (The Scripps Research Institute, priority 2021, published 2025)
